Source: patent publication US9585879B2, “Heterocyclic GSK-3 allosteric modulators” (Consejo Superior de Investigaciones Cientificas (CSIC), priority 2011, dated 2017)
Read-outs that look alike come from different tables or passages of the source.

How the values were obtained:
[1] = target: recombinant human GSK3 enzyme (GSK-3β); assay type: biochemical; settings: Kinase-Glo, 1 μM ATP, 25 μM substrate, 30 min at 30 °C
Description: Measurement of the Inhibition of GSK-3β
The enzyme inhibition assays were performed using the luminometric methodology of kinase-Glo®. The recombinant human GSK3 enzyme (catalogue no. 14-306) was acquired from Upstate (Dundee, UK). The prephosphorylated polypeptide was synthesised by American Peptide Inc. (Sunnyvale, Calif.). The luminescent kinase kit (catalogue no. V6711) was obtained from Promega. The ATP and the other reagents were purchased from Sigma-Aldrich (St. Louis, Mo.).
The assays were performed in buffer using 96-well plates. 10µl of the compound to be assayed (dissolved in DMSO at a concentration of 1 mM, and, in turn, dissolved in buffer to the concentration necessary for the experiment) and 10µl (20 ng) of the enzyme are added to each well, followed by 20µl of buffer containing 25µM of the substrate and 1µM of ATP. […] Following a half-hour incubation at 30° C., the enzymatic reaction is stopped with 40µl of the kinase-Glo® reagent. The luminescence is measured after ten minutes, using a POLARstar Optima multimode reader. The activity is proportional to the difference between the total ATP and the ATP consumed. The inhibitory activities were calculated as a function of the maximum activity, measured in the absence of inhibitor.

[2] = tested on: GSK-3β; assay: Study of the inhibition of GSK-3β as a function of enzyme-inhibitor pre-incubation time; assay type: biochemical, human
Description: In order to determine the binding mode of these compounds, different kinetic studies were performed, varying the reaction times and the ATP concentration and the substrate concentration.

[3] = tested on: GSK-3β; assay type: biochemical, human
Description: The ATP concentrations were varied from 1 to 50 µM, whereas the concentration of the GS-2 peptide was kept constant at 12.5 µM. The concentrations of inhibitor (compound 6) used are shown in the plot.
The kinetic studies conducted by varying the ATP concentration from 1 to 50µM, and the concentration of inhibitor 6 from 5 to 10µM, were performed using the ADP-Glo™ Kinase Assay.

[4] = tested on: GSK-3β; assay type: biochemical, human; remark: listed apart in the source
Description: The GS-2 concentrations were varied from 15.5 to 100 µM, whereas the ATP concentration was kept constant at 1 µM. The concentrations of inhibitor (compound 6) used are shown in the plot.
On the other hand, we also studied the dependence of GSK-3β activity in the presence of these inhibitors as a function of the concentration of the substrate, the GS-2 peptide, used in the assays.

[5] = GS-2 15.5 to 100 μM, ATP 1 μM, inhibitor 5 to 10 μM

SMILES	IC50 [1] [µM]	% inhibition of GSK-3β ([2]; [Comp. 6] 5 μM, pre-incubation time E + I 0 min) [%]	% inhibition of GSK-3β ([2]; [Comp. 6] 5 μM, pre-incubation time E + I 5 min) [%]	% inhibition of GSK-3β ([2]; [Comp. 6] 5 μM, pre-incubation time E + I 10 min) [%]	% inhibition of GSK-3β ([2]; [Comp. 6] 10 μM, pre-incubation time E + I 0 min) [%]	% inhibition of GSK-3β ([2]; [Comp. 6] 10 μM, pre-incubation time E + I 5 min) [%]	% inhibition of GSK-3β ([2]; [Comp. 6] 10 μM, pre-incubation time E + I 10 min) [%]	reversibility of GSK-3β inhibition ([2]; different enzyme incubation times, two inhibitor concentrations)	Michaelis-Menten constant (Km) in the presence of the inhibitor [3]	mode of inhibition with respect to ATP ([3]; ATP 1 to 50 μM, GS-2 12.5 μM, inhibitor 5 to 10 μM)	maximum enzyme activity (Vmax) in the presence of the inhibitor ([3]; ATP 1 to 50 μM, inhibitor 5 to 10 μM)	Michaelis-Menten constant (Km) in the presence of the inhibitor [4]	maximum enzyme activity (Vmax) in the presence of the inhibitor [4, 5]	mode of inhibition with respect to substrate GS-2 [4, 5]
CCCCCCCCCCCC(=O)NNC(=O)c1c(O)c2ccccc2n(C)c1=O [Compound 4, N′-Dodecanoyl-4-hydroxy-1-methyl-2-oxo-1,2-dihydroquinoline-3-carbohydrazide]	7.35 ± 0.23													
CCCCCCCCCCCC(=O)NNC(=O)c1c(O)c2ccccc2n(CC)c1=O [Compound 6, N′-Dodecanoyl-1-ethyl-4-hydroxy-2-oxo-1,2-dihydroquinoline-3-carbohydrazide]		27.42	30.31	30.18	61.4	63.04	62.26	reversible inhibitor	remains invariable	non-ATP-competitive inhibitor	decreases	remains invariable	decreases	substrate-non-competitive inhibitor
CCCCCCCCCCCC(=O)N(Cc1ccccc1)NC(=O)c1c(O)c2ccccc2n(Cc2ccccc2)c1=O [Compound 63, N′,1-Dibenzyl-N′-dodecanoyl-4-hydroxy-2-oxo-1,2-dihydroquinoline-3-carbohydrazide]	6.84 ± 0.51													
